Measured values taken from patent US8410044B2, “Bacitracin antibiotics” (Xellia Pharmaceuticals Aps, priority 2009, dated 2013).
Where a SMILES comes first, the peptide text is derived from it. Bridges are numbered along the chain shown (N, C = ends). [ ]: non-standard residue; d: D form. The star is where a group is joined. X2 = CCC(C)C(N)C1=NC(C(=O)*)CS1; Orn = NCCC[CH](N)C(=O)O

Tested on: Micrococcus luteus
Assay: Potency (specific antibacterial activity): agar plate inhibition zones compared with Bacitracin Zinc standard
Format: cell-based
Details: calculated from potency of sample A and its 93% area-% content
Description: Potency is the in vitro antibacterial activity. It can be measurered and expressed as IU/mg. The antibacterial activity of samples A, B′ and C′ (see Table 1) was measured. The specific antibacterial activity (listed here as IU/mg), often termed potency, was measured by comparing the antibacterial activity of the unknown sample with known (standard) samples. Specifically, a Bacitracin Zinc standard was dissolved and diluted to 2.0, 1.0, and 0.5 IU bacitracin/ml in 0.07 M phosphate buffer pH 6.0. These three standard solutions were added to agar plates inoculated with the test organism, Micrococcus luteus. The unknown samples were dissolved, diluted and added to the same plate as the standards. After 16-24 hours at 32-37 C, the inhibition zones were measured and the unknown samples were compared to the standards.

In the case of `CCC(C)C(N)C1=NC(C(=O)NC(CC(C)C)C(=O)NC(CCC(=O)O)C(=O)NC(C(=O)NC2CCCCNC(=O)C(CC(N)=O)NC(=O)C(CC(=O)O)NC(=O)C(Cc3c[nH]cn3)NC(=O)C(Cc3ccccc3)NC(=O)C(C(C)CC)NC(=O)C(CCCN)NC2=O)C(C)CC)CS1` (stereo not shown) [Bacitracin A] (X2-LEIK[Orn]IFHDN; lactam 4-C; configuration not given here), the “specific antibacterial activity of Bacitracin A, calculated from sample A (93% Bacitracin A by HPLC at 254 nm)” value is reported as 77.4 IU/mg.
